Results reported in patent US3978210A, “Antibiotic aculeacins” (Toyo Jozo Kabushiki Kaisha, priority 1974, dated 1976).

Legend:
Saccharomyces cerevisiae = experiment: Activity against yeasts, minimum inhibitory concentration; assay type: cell-based; conditions: Sabroud agar, 30°C., 48 hours
Procedure: (§1) 2. Activity against yeasts:
(§2) Assay medium: Sabroud agar, at 30°C., for 48 hours.

Torula utilis = experiment: as above; assay type: cell-based; conditions: Sabroud agar, 30°C., 48 hours
Procedure: as §1, §2

Mycotorula japonica = experiment: as above; assay type: cell-based; conditions: Sabroud agar, 30°C., 48 hours
Procedure: as §1, §2

Saccharomyces sake = experiment: as above; assay type: cell-based; conditions: Sabroud agar, 30°C., 48 hours
Procedure: as §1, §2

Cryptococcus neoiormans = experiment: as above; assay type: cell-based; conditions: Sabroud agar, 30°C., 48 hours
Procedure: as §1, §2

Candida pseudotropicalis = experiment: as above; assay type: cell-based; conditions: Sabroud agar, 30°C., 48 hours
Procedure: as §1, §2

Candida krusei = experiment: as above; assay type: cell-based; conditions: Sabroud agar, 30°C., 48 hours
Procedure: as §1, §2

Candida parakrusei = experiment: as above; assay type: cell-based; conditions: Sabroud agar, 30°C., 48 hours
Procedure: as §1, §2

Candida tropicalis = experiment: as above; assay type: cell-based; conditions: Sabroud agar, 30°C., 48 hours
Procedure: as §1, §2

Candida quilliermondii = experiment: as above; assay type: cell-based; conditions: Sabroud agar, 30°C., 48 hours
Procedure: as §1, §2

mouse = experiment: Acute toxicity on mouse, LD50; assay type: in vivo
Source text: 4. Acute toxicity on mouse:
Aculeacins are almost insoluble in water, soluble in 1% sodium carboxy-methyl cellulose (CMC) solution and sodium deoxycholate (DOC). LD50 of aculeacin-A injection prepared by using those additives is as follows: […]

Ascochyta soyaecola = experiment: Activity against fungi, giant colony growth inhibition; assay type: cell-based; conditions: Sabroud agar, 26°C., 7 to 14 days
Procedure: (§3) 3. Activity against fungi:
(§4) Since aculeacins have no fungicidal activity, fungi are inoculated in Sabroud agar medium containing several concentrations of aculeacins, and incubated at 26°C. 7 to 14 days. 80% growth inhibitory concentrations of aculeacins are measured by the ratio of area of giant colony to that of control without aculeacins.

Microsporum gypseum = experiment: as above; assay type: cell-based; conditions: Sabroud agar, 26°C., 7 to 14 days
Procedure: as §3, §4

Trichophyton rubrum = experiment: as above; assay type: cell-based; conditions: Sabroud agar, 26°C., 7 to 14 days
Procedure: as §3, §4

Glomerella cingulata = experiment: as above; assay type: cell-based; conditions: Sabroud agar, 26°C., 7 to 14 days
Procedure: as §3, §4

Aspergillus fumigatus = experiment: as above; assay type: cell-based; conditions: Sabroud agar, 26°C., 7 to 14 days
Procedure: as §3, §4

Sclerotium bataticola = experiment: as above; assay type: cell-based; conditions: Sabroud agar, 26°C., 7 to 14 days
Procedure: as §3, §4

Corynespora cassicola = experiment: as above; assay type: cell-based; conditions: Sabroud agar, 26°C., 7 to 14 days
Procedure: as §3, §4

Cercospora kikuchii = experiment: as above; assay type: cell-based; conditions: Sabroud agar, 26°C., 7 to 14 days
Procedure: as §3, §4

Diaporthe phaseolorum = experiment: as above; assay type: cell-based; conditions: Sabroud agar, 26°C., 7 to 14 days
Procedure: as §3, §4

Trichophyton asteroides = experiment: as above; assay type: cell-based; conditions: Sabroud agar, 26°C., 7 to 14 days
Procedure: as §3, §4

[1] = test system: Fusarium oxysporum f. lini; experiment: as above; assay type: cell-based; conditions: Sabroud agar, 26°C., 7 to 14 days
Procedure: as §3, §4

[2] = test system: Collectotrichum linicolum; experiment: as above; assay type: cell-based; conditions: Sabroud agar, 26°C., 7 to 14 days
Procedure: as §3, §4

Helminthosporium oryzae = experiment: as above; assay type: cell-based; conditions: Sabroud agar, 26°C., 7 to 14 days
Procedure: as §3, §4

Candida albicans = experiment: Activity against yeasts, minimum inhibitory concentration; assay type: cell-based; parameters: unit not given here; conditions: Sabroud agar, 30°C., 48 hours
Procedure: as §1, §2

Aculeacin-A
minimum inhibitory concentration (Saccharomyces cerevisiae): 1.6 | minimum inhibitory concentration (Torula utilis): < 0.1 | minimum inhibitory concentration (Mycotorula japonica): < 0.1 | minimum inhibitory concentration (Saccharomyces sake): 1.6 | minimum inhibitory concentration (Cryptococcus neoiormans): > 100 | minimum inhibitory concentration (Candida pseudotropicalis): 0.8 | minimum inhibitory concentration (Candida krusei): 0.8 | minimum inhibitory concentration (Candida parakrusei): 3.2 | minimum inhibitory concentration (Candida tropicalis): > 100 | minimum inhibitory concentration (Candida quilliermondii): 0.8 | LD50 (mouse; i.m., in CMC): > 3460 mg/kg | LD50 (mouse; i.m., in DOC): 600 mg/kg | LD50 (mouse; i.p., in CMC): 600 mg/kg | LD50 (mouse; i.v., in DOC): 350 mg/kg | LD50 (mouse; p.o., in CMC): > 3000 mg/kg | 80% growth inhibitory concentration (Ascochyta soyaecola): 0.08 gamma/ml. | 80% growth inhibitory concentration (Microsporum gypseum): 0.008 gamma/ml. | 80% growth inhibitory concentration (Trichophyton rubrum): 0.006 gamma/ml. | 80% growth inhibitory concentration (Glomerella cingulata): 0.06 gamma/ml. | 80% growth inhibitory concentration (Aspergillus fumigatus): 0.5 gamma/ml. | 80% growth inhibitory concentration (Sclerotium bataticola): 0.08 gamma/ml. | 80% growth inhibitory concentration (Corynespora cassicola): 2.0 gamma/ml. | 80% growth inhibitory concentration (Cercospora kikuchii): 4.0 gamma/ml. | 80% growth inhibitory concentration (Diaporthe phaseolorum): 0.01 gamma/ml. | 80% growth inhibitory concentration (Trichophyton asteroides): 0.004 gamma/ml. | 80% growth inhibitory concentration [1]: 2.0 gamma/ml. | 80% growth inhibitory concentration [2]: 0.4 gamma/ml. | 80% growth inhibitory concentration (Helminthosporium oryzae): 0.008 gamma/ml. | minimum inhibitory concentration (Candida albicans; Candida albicans 1): 0.2 | minimum inhibitory concentration (Candida albicans; Candida albicans 2): < 0.1 | minimum inhibitory concentration (Candida albicans; Candida albicans 3): < 0.1 | minimum inhibitory concentration (Candida albicans; Candida albicans 4): 0.2 | minimum inhibitory concentration (Candida albicans; Candida albicans 5): 1.6 | minimum inhibitory concentration (Candida albicans; Candida albicans 6): < 0.1 | minimum inhibitory concentration (Candida albicans; Candida albicans 7): 3.2 | minimum inhibitory concentration (Candida albicans; Candida albicans 8): 0.1
